“Also recorded” adds a separate entry of the source. Where a name gives a salt, the structure may show the parent alone.
How the values were obtained:
[1] = system: patient experiencing stress induced symptoms; assay: treatment of patients with stress induced symptoms with serotonin precursors (Examples 16-23); type: in vivo, human
rats = conditions: cited from earlier work; for tail pressure/tail pinch-induced eating: Rowland et al.
obese, stressed patients [2] = assay: questionnaire rating appetite and hunger; type: in vivo, human; parameters: Appetite and Cravings: scale not given here
Text: (§1) A subgroup of obese individuals is identified, which individuals describe themselves as being unable to control their eating and who attempt to continue on a weight-reducing diet when experiencing emotional distress. […]
(§2) Objective measurements of emotional distress are made in some patients using the CES-D (Center for […] Depression Form) test, which measures current levels of emotional distress (Radloff, et al., The CES-D Scale: A Self Report Depression Scale for Research in the General Population Applied Psychological Measurement 1: 385-401, 1977); and the POMS (Profile of Mood States test, that assesses tension, depression, anger and confusion (McNair, et al., Profile of Mood States Manual;San Diego: Educational and Industrial Testing Service, 1971); both of these references are hereby incorporated by reference in their entirety. These tests are also given monthly during the treatment period. At the same time, patients also complete questionnaires that ask the patients to rate their appetite and hunger, and also to rate their tendency to eat in response to a variety of emotional and stressful triggers. The patients are also weighed monthly.

obese, stressed patients [3] = assay: CES-D test of current levels of emotional distress in patients; type: in vivo, human; conditions: for CES-D Mood Score: over the treatment period
Text: as §1, §2

obese, stressed patients [4] = assay: questionnaire rating tendency to eat in response to emotional and stressful triggers; type: in vivo, human; parameters: Emotional Triggers: scale not given here; conditions: for emotional triggers score: over the treatment period
Text: as §1, §2

[5] = body weight in four month weight loss program; type: in vivo, human
Text: as §1, §2

obese, stressed patients [6] = assay: POMS (Profile of Mood States) test; type: in vivo, human; conditions: 30 mg/day, during the study period, baseline 24
Protocol: A subgroup of obese individuals is identified, which individuals describe themselves as being unable to control their eating and who attempt to continue on a weight-reducing diet when experiencing emotional distress. These patients are treated for four months by enrolling them in a weight loss program which includes the administration of dexfenfluramine at 30 mg/day and which involves adherence to a reduced-calorie meal plan.
as §2

[7] = Example 22, functional food, in conjunction with a stimulant of serotonin synthesis
[8] = patient six, 30 mg/day, Month 4, baseline 5
[9] = patient six, 30 mg/day, Month 4, baseline 23
[10] = Example 19, food based preparation, in conjunction with a serotonin agonist
[11] = Example 23, food based preparation
[12] = Example 20, in conjunction with a stimulant of serotonin synthesis

## N[C@@H](Cc1c[nH]c2ccccc12)C(=O)O [L-tryptophan]
[1]; Example 18, functional food, in conjunction with a stimulant of serotonin synthesis
  stress induced fatigue: reduced fatigue
[1]; [7]
  stress as indicated by CES-D Mood Score and emotional triggers score: reduced stress
  stress induced neck and back pain: reduced back and neck pain

## CCNC(C)Cc1cccc(C(F)(F)F)c1 (racemic) [D,L-fenfluramine, N-ethyl-α-methyl-3-(trifluoro-methyl)benzeneethanamine]
rats
  tail pressure/tail pinch-induced eating: inhibits tail pressure-induced eating
obese, stressed patients [2]; patient six, 30 mg/day, Month 1, baseline 10
  Appetite and Cravings: 2
obese, stressed patients [2]; patient six, 30 mg/day, Month 2, baseline 10
  Appetite and Cravings: 5
obese, stressed patients [2]; patient six, 30 mg/day, Month 3, baseline 10
  Appetite and Cravings: 5
obese, stressed patients [2]; patient six, 30 mg/day, Month 4, baseline 10
  Appetite and Cravings: 4
obese, stressed patients [3]; patient six, 30 mg/day, Month 1, baseline 5
  Mood Scores CES-D: 1
obese, stressed patients [3]; patient six, 30 mg/day, Month 2, baseline 5
  Mood Scores CES-D: 3
obese, stressed patients [3]; patient six, 30 mg/day, Month 3, baseline 5
  Mood Scores CES-D: 2
obese, stressed patients [3]; [8]
  Mood Scores CES-D: 1
obese, stressed patients [4]; patient six, 30 mg/day, Month 1, baseline 23
  Emotional Triggers: 2
obese, stressed patients [4]; patient six, 30 mg/day, Month 2, baseline 23
  Emotional Triggers: 3
obese, stressed patients [4]; patient six, 30 mg/day, Month 3, baseline 23
  Emotional Triggers: 2
obese, stressed patients [4]; [9]
  Emotional Triggers: 4

## N[C@@H](Cc1c[nH]c2ccc(O)cc12)C(=O)O [L-5-hydroxytryptophan]
obese, stressed patients [3]; [10]
  CES-D Mood Score: drops
obese, stressed patients [3]; [11]
  CES-D Mood Score: drops
[1]; [10]
  stress induced depression: reduced depression
[1]; [12]
  stress: decreased stress
  stress induced high blood pressure: lower blood pressure
[1]; [11]
  stress induced inability to concentrate: improved concentration
obese, stressed patients [4]; [10]
  emotional triggers score: drops
obese, stressed patients [4]; [11]
  emotional triggers score: drops

## CN[C@H]1CC[C@@H](c2ccc(Cl)c(Cl)c2)c2ccccc21 [sertraline hydrochloride]
obese, stressed patients [2]; patient two, 50 rising to 200 mg/day, Month 1, baseline 15
  Appetite and Cravings: 12
obese, stressed patients [2]; patient two, 50 rising to 200 mg/day, Month 2, baseline 15
  Appetite and Cravings: 5
obese, stressed patients [2]; patient two, 50 rising to 200 mg/day, Month 3, baseline 15
  Appetite and Cravings: 3
obese, stressed patients [2]; patient two, 50 rising to 200 mg/day, Month 4, baseline 15
  Appetite and Cravings: 1
obese, stressed patients [3]; patient nine, 100 mg/day in divided doses, Month 4, baseline 9
  Mood Scores CES-D: 1
obese, stressed patients [3]; patient two, 50 rising to 200 mg/day, Month 1, baseline 20
  Mood Scores CES-D: 16
obese, stressed patients [3]; patient two, 50 rising to 200 mg/day, Month 2, baseline 20
  Mood Scores CES-D: 16
obese, stressed patients [3]; patient two, 50 rising to 200 mg/day, Month 3, baseline 20
  Mood Scores CES-D: 10
obese, stressed patients [3]; patient two, 50 rising to 200 mg/day, Month 4, baseline 20
  Mood Scores CES-D: 12
obese, stressed patients [4]; patient nine, 100 mg/day in divided doses, Month 4, baseline 12
  Emotional Triggers: 3
obese, stressed patients [4]; patient two, 50 rising to 200 mg/day, Month 1, baseline 22
  Emotional Triggers: 12
obese, stressed patients [4]; patient two, 50 rising to 200 mg/day, Month 2, baseline 22
  Emotional Triggers: 13
obese, stressed patients [4]; patient two, 50 rising to 200 mg/day, Month 3, baseline 22
  Emotional Triggers: 5
obese, stressed patients [4]; patient two, 50 rising to 200 mg/day, Month 4, baseline 22
  Emotional Triggers: 3
[5]; patient nine, 100 mg/day in divided doses, starting weight 92.3 kg
  weight at the end of 4 months: 72.7 kg
[5]; patient nine, 100 mg/day in divided doses, starting weight 203 pounds
  weight at the end of 4 months: 160 pounds
[5]; patient two, 50 rising to 200 mg/day, starting weight 78.6 kg
  weight at the end of 4 months: 72.7 kg
[5]; patient two, 50 rising to 200 mg/day, starting weight 173 pounds
  weight at the end of 4 months: 160 pounds

## CCN[C@@H](C)Cc1cccc(C(F)(F)F)c1 [dexfenfluramine]
obese, stressed patients [6]
  summed Tension, Depression, Anger and Confusion scores on the POMS test: 16.8
rats
  tail pressure/tail pinch-induced eating: decrease the eating behavior
rats; reported by Garattini, quoted from Rowland et al.
  DI50, inhibition of tail pressure-induced eating: 0.6 mg/kg
obese, stressed patients [2]; 30 mg/day, during the treatment period, initial score 10.5
  score on the appetite and hunger scale: 5.0
obese, stressed patients [3]; 30 mg/day, fifth of six women, from 15
  lowered CES-D score: 7
obese, stressed patients [3]; 30 mg/day, first of six women with above normal score at start, from 34
  lowered CES-D score: 7
obese, stressed patients [3]; 30 mg/day, fourth of six women, from 19
  lowered CES-D score: 5
obese, stressed patients [3]; 30 mg/day, second of six women, from 37
  lowered CES-D score: 8
obese, stressed patients [3]; 30 mg/day, sixth of six women, from 15
  lowered CES-D score: 3
obese, stressed patients [3]; 30 mg/day, stress-induced overeaters
  indicators of stress: reduces the indicators of stress
obese, stressed patients [3]; 30 mg/day, third of six women, from 22
  lowered CES-D score: 9
obese, stressed patients [3]; patient eleven, 30 mg/day, Month 4, baseline 19
  Mood Scores CES-D: 4
obese, stressed patients [3]; [8]
  Mood Scores CES-D: 1
obese, stressed patients [3]; patient ten, 75 rising to 150 mg/day, Month 4, baseline 8
  Mood Scores CES-D: 2
obese, stressed patients [3]; patient three, 50 rising to 150 mg/day, Month 4, baseline 23
  Mood Scores CES-D: 17
obese, stressed patients [3]; patient twelve, 75 then 100 mg/day, Month 4, baseline 29
  Mood Scores CES-D: 18
obese, stressed patients [4]; 30 mg/day, end of the treatment period, from 23.4±9.8, ± standard deviations
  score on the emotional triggers to overeating report: 8.6±8.5
obese, stressed patients [4]; patient eleven, 30 mg/day, Month 4, baseline 30
  Emotional Triggers: 7
obese, stressed patients [4]; [9]
  Emotional Triggers: 4
obese, stressed patients [4]; patient ten, 75 rising to 150 mg/day, Month 4, baseline 14
  Emotional Triggers: 2
obese, stressed patients [4]; patient three, 50 rising to 150 mg/day, Month 4, baseline 34
  Emotional Triggers: 24
obese, stressed patients [4]; patient twelve, 75 then 100 mg/day, Month 4, baseline 25
  Emotional Triggers: 3
[5]; 30 mg/day, four months, reduced-calorie meal plan
  ability of stressed overeaters to lose weight: enhance the ability of stressed overeaters to lose weight; also recorded: promotes the ability to control food intake and to lose weight
[5]; patient eleven, 30 mg/day, starting weight 90.0 kg
  weight at the end of 4 months: 82.6 kg
[5]; patient eleven, 30 mg/day, starting weight 198 pounds
  weight at the end of 4 months: 181.7 pounds
[5]; patient six, 30 mg/day, starting weight 98.2 kg
  weight after 4 months: 93.4 kg
[5]; patient six, 30 mg/day, starting weight 216 pounds
  weight after 4 months: 205.5 pounds
[5]; patient ten, 75 rising to 150 mg/day, starting weight 83.6 kg
  weight after 4 months: 76.8 kg
[5]; patient ten, 75 rising to 150 mg/day, starting weight 184 pounds
  weight after 4 months: 169 pounds
[5]; patient three, 50 rising to 150 mg/day, starting weight 137.3 kg
  weight after 4 months: 130 kg
[5]; patient three, 50 rising to 150 mg/day, starting weight 302 pounds
  weight after 4 months: 286 pounds
[5]; patient twelve, 75 then 100 mg/day, starting weight 90.0 kg
  weight at the end of 4 months: 82.6 kg
[5]; patient twelve, 75 then 100 mg/day, starting weight 198 pounds
  weight at the end of 4 months: 182 pounds

Source: US6579899B1, “Composition for treatment of stress” (Massachusetts Institute of Technology, priority 1998, dated 2003)
